Assay results published in patent US5118704A, “Substituted 2-aminotetralins useful as dopaminergics” (Whitby Research, Inc., priority 1991, dated 1992).
Read-outs that look alike come from different tables or passages of the source.

Assays:
[1] = molecular target: T1, dopamine D2 receptors (Bos taurus, UniProt P20288); test: Radioligand binding to dopamine D2 receptors ([3H]-Spiperone, bovine caudate nuclei membranes); details: for affinity and selectivity for dopamine D2 receptors (in words): result in words
T1 construct: membranes derived from bovine caudate nuclei assay were employed; from tissue; host or cells: bovine caudate nuclei membranes (brains from a local slaughterhouse)
T1 sequence (P20288 whole entry): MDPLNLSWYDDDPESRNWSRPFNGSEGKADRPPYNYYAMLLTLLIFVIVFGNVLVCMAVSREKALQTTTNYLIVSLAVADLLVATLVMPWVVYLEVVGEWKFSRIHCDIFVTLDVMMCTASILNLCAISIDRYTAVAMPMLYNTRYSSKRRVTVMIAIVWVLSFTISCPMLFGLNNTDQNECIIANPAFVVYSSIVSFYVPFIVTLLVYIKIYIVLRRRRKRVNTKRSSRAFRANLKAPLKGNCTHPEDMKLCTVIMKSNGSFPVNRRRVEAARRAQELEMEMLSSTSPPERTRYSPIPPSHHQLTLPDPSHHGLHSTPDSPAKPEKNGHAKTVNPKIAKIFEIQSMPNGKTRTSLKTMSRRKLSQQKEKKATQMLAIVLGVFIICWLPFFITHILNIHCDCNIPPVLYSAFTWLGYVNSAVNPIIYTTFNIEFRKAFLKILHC
Description: (§1) To test the selectivity and specificity of the present compounds for binding to dopamine receptors, tests were conducted using the following standard procedures.
(§2) To test binding to dopamine receptors, membranes derived from bovine caudate nuclei assay were employed. Bovine brains were obtained fresh from a local slaughterhouse. The caudate nuclei were dissected out and homogenized in Buffer A (50 mM Tris; 1 mM Na2 -EDTA; 5 mM KCl; 1 mM MgCl2; 2 mM CaCl2; pH 7.4) using a Brinkman Polytron. The homogenate was centrifuged at 40,000 × g for 20 minutes and washed once. The pellett was resuspended in Buffer A, incubated at 37° C. for 15 minutes, then centrifuged. The pellet was washed once more, resuspended to a protein concentration of 5-10 mg/ml in Buffer A and frozen at -70° C. until used.
(§3) The following tritiated drugs were used as radioligands for each of the receptors tested: [^3 H]-Spiperone 21-24 Ci/mmol for D2 receptors, [^3 H]-SCH23390 75-85 Ci/mmol for D1 receptors, and [^3 H]-Para aminoclonidine 48-52 Ci/mmol for α2 -adrenergic receptors. The radio-ligands were incubated with various concentrations of competing drug and the appropriate membrane source for periods of time as follows: 75 minutes at room temperature for D2 receptors, 30 minutes at 37° C. for D1 receptors, or 30 minutes at room temperature for α2 receptors. Specific binding was defined using 1μM butaclamol (D2), 1 μM SCH23390 (D1), or 1 μM yohimbine (α2). In addition the D2 assays contained 30 nM ketaserin in order to block the binding of ^3 H-spiperone to 5HT2 receptors.
(§4) The assays were terminated by filtration using a 24-port Brandell cell harvester over filters that had been previously soaked in 0.1% polyethyleneimine, and the filters were washed three times by filtration of cold buffer. The filters were then placed in 5 ml scintillation vials to which 4 ml of Beckman Ready-Protein was then added, and each vial was counted for 2 minutes in a Beckman 3801 scintillation counter calibrated for conversion of cpm to dpm. Binding data were analyzed using the Ligand program of Munson and Rodbard (1980). The results are presented as Ki values if the data were best fitted to a one-site model, or as KH and KL values if a two-site model produced the better fit.

[2] = test system: dopamine D2; details: result in words; cited from earlier work
[3] = molecular target: T2, α2-adrenergic receptors (Rattus norvegicus, UniProt P22909); test: Radioligand binding to α2-adrenergic receptors ([3H]-Para aminoclonidine, rat cerebral cortex membranes)
T2 construct: rat cerebral cortex membranes were employed as a source of receptors; from tissue; host or cells: cerebral cortex membranes of male Sprague Dawley rats
T2 sequence (P22909 1-465): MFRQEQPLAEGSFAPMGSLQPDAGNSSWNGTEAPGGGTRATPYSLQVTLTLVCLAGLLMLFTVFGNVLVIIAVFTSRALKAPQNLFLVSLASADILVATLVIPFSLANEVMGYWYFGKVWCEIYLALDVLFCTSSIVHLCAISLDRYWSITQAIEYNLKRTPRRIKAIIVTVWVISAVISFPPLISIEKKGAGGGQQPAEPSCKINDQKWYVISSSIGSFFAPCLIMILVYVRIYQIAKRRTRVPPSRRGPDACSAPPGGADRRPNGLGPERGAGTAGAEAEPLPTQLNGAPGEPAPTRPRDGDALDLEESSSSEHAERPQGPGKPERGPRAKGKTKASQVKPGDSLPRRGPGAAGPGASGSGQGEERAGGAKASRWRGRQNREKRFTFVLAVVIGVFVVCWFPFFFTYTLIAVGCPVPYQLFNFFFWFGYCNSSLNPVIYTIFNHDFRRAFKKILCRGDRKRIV
Description: as §1
To test binding of the compounds to α2 -adrenergic receptors, rat cerebral cortex membranes were employed as a source of receptors. Male Sprague Dawley rats were killed by decapitation and the brains removed. The cerebral cortices were homogenized in 50 mM Tris; 2 mM MgCl2 (pH 7.4), and centrifuged at 40,000 × g for 10 minutes. The pellet was washed once, resuspended in Tris/MgCl2 and incubated with 8 units/ml adenosine deaminase at 37° C. for 30 minutes. The homogenate was centrifuged, washed once, resuspended to a protein concentration of 5-10 mg/ml and frozen at -70° C. until use.
as §3, §4

[4] = molecular target: T3, dopamine D1 receptors (Bos taurus, UniProt Q95136); test: Radioligand binding to dopamine D1 receptors ([3H]-SCH23390, bovine caudate nuclei membranes)
T3 construct: membranes derived from bovine caudate nuclei assay were employed; from tissue; host or cells: bovine caudate nuclei membranes (brains from a local slaughterhouse)
T3 sequence (Q95136 whole entry): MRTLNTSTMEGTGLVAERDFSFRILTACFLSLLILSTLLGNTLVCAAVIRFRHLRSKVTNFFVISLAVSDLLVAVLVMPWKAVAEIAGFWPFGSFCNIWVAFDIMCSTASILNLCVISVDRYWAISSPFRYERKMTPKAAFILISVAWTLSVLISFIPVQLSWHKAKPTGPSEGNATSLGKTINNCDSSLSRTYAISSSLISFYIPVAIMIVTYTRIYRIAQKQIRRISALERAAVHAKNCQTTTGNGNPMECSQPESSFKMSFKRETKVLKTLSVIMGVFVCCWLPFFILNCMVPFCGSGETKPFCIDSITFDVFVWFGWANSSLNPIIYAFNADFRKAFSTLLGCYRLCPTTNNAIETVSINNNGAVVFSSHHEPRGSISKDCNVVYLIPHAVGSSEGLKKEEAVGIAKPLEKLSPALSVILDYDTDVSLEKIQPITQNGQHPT
Description: as §1, §2, §3, §4

[5] = test system: dopamine receptor; details: prior art, result in words; cited from earlier work
[6] = [3H]-Spiperone, bovine caudate membranes, 75 minutes at room temperature, 30 nM ketaserin, read-out: RECEPTOR AFFINITIES Ki, D2 (KL)
[7] = [3H]-Para aminoclonidine, rat cerebral cortex membranes, 30 minutes at room temperature, read-out: RECEPTOR AFFINITIES Ki, α2
[8] = [3H]-SCH23390, bovine caudate membranes, 30 minutes at 37° C., read-out: RECEPTOR AFFINITIES Ki, D1 (KL)

Row | SMILES | Ki [1, 6] [nM] | Ki [3, 7] [nM] | Ki [4, 8] [nM] | other results
1 | CCCN(CCc1cccs1)C1CCc2c(O)cccc2C1 (racemic) [Example N-0437, reference compound] | – | – | – | Ki [1]: 110 nM; dopamine D2 agonist potency (in words) [2]: potent dopamine D2 agonist; Ki [3]: 190 nM; Ki [4]: 1000 nM
2 | CCCN(CCCn1c(C)ccc1C)C1CCc2c(O)cccc2C1 (stereo not shown) [Example 2] | – | – | – | Ki [1]: 26 nM; affinity and selectivity for dopamine D2 receptors (in words) ([1]; listed as 2,5-dimethyl-N-propyl-N-(1,2,3,4-tetrahydro-5-hydroxy-2-naphthalenyl)-1H-pyrrole): high affinity and selectivity for binding to D2 dopamine receptors; affinity and selectivity for dopamine D2 receptors (in words) ([1]; listed as 6-[[3-(2,5-dimethyl-1H-pyrrol-1-yl)propyl]propylamino-5,6,7,8-tetrahydro-1-napht): high affinity and selectivity for binding to dopamine D2 receptors; Ki [3]: 1600 nM; Ki [4]: 2700 nM
3 | CCCN(CCn1c(C)ccc1C)C1CCc2c(O)cccc2C1 (stereo not shown) [Example 4, 6-[[2-(2,5-dimethyl-1H-pyrrol-1-yl)ethyl]propylamino]-5,6,7,8-tetrahydro-1-naphthalenol] | 100 | 1400 | 10000 | –
4 | CN1CCc2cccc3c2[C@H]1Cc1ccc(O)c(O)c1-3 [apomorphine] | – | – | – | dopaminergic activity (in words) [5]: high activity

Continued, in another order:

Row | Ki [1, 6] [nM] | Ki [3, 7] [nM] | Ki [4, 8] [nM] | SMILES | other results
5 | 1260 | 142 | 3230 | CCCN(CCCN1C(=O)c2ccccc2C1=O)C1CCc2c(O)cccc2C1 (stereo not shown) [Example 10, 2-[3-[propyl(1,2,3,4-tetrahydro-5-hydroxy-2-naphthalenyl)amino]propyl]-1H-isoindole-1,3(2H)-dione] | –
6 | 720 | 1130 | 3000 | CCCN(CCCN1Cc2ccccc2C1)C1CCc2c(O)cccc2C1 (stereo not shown) [Example 11, 6-[[3-(1,3-dihydro-2H-isoindol-2-yl)propyl]propylamino]-5,6,7,8-tetrahydro-1-napththalenol] | –
7 | 1260 | 10000 | 14000 | CCCN(CCN1C(=O)c2ccccc2C1=O)C1CCc2c(O)cccc2C1 (stereo not shown) [Example 13, 2-[2-[propyl(1,2,3,4-tetrahydro-5-hydroxy-2-naphthalenyl)amino]ethyl]-1H-isoindole-1,3(2H)-dione] | –
8 | 52 | 2630 | 4860 | CCCN(CCN1Cc2ccccc2C1)C1CCc2c(O)cccc2C1 (stereo not shown) [Example 14, 6[[2-(1,3-dihydro-2H-isoindol-2-yl)ethyl]propylamino]-5,6,7,8-tetrahydro-1-naphthalenol] | –
